tested on: blood platelet activating factor (PAF); assay: Inhibition of PAF-induced platelet aggregation in platelet-rich plasma (aggregometer); format: cell-based; details: rabbit platelet-rich plasma, 37° C., stirring; test substance added 2 minutes before PAF (4 nM, sub-maximum dosage); read-out: IC50 (concentration of the test substance which reduces to a half the aggregation of the blood platelets brought about by PAF)
Description: The aggregation of the blood platelets was measured with the aid of an aggregometer at 37° C. while stirring. […] The IC50 value (in μM) given in the following Table corresponds to that concentration of the test substance which reduces to a half the aggregation of the blood platelets brought about by PAF.

IC50 [nM] | Compound
1600 | CCCCCCCCCCCCCCCCCCOC[C@H](COC(=O)CCC[n+]1ccccc1)OC(=O)NC [Example 1, 1-[3-[[(R)-2-[(methylcarbamoyl)oxy]-3-(octadecyloxy)propoxy]carbonyl]-propyl]pyridinium chloride]
3000 | CCCCCCCCCCCCCCCCCCOC[C@H](COC(=O)OCC[n+]1ccccc1)OC(=O)NC [Example 3, 1-[2-[[[(R)-2-[(methylcarbamoyl)oxy]-3-(octadecyloxy)propoxy]carbonyl]oxy]ethyl]pyridinium bromide]
200 | CCCCCCCCCCCCCCCCCCNC(=O)OC[C@@H](COC(=O)CCC[n+]1ccccc1)OC(=O)OC [Example 21b, 1-[3-[[(R)-2-[(methoxycarbonyl)oxy]-3-[(octadecylcarbamoyl)oxy]propoxy]carbonyl]propyl]pyridinium chloride]
3000 | CCCCCCCCCCCCCCCCCCOCC(COC(=O)CC[n+]1ccccc1)NC(=O)OC (racemic) [Example 15]
150 | CCCCCCCCCCCCCCCCCCNC(=O)OCC(COC(=O)CCC[n+]1ccccc1)OC(=O)OC (racemic) [Example 21a, 1-[3-[[(RS)-2-[(methoxycarbonyl)oxy]-3-[(octadecylcarbamoyl)oxy]propoxy]carbonyl]propyl]pyridinium chloride]
200 | CCCCCCCCCCCCCCCCCCNC(=O)OC[C@H](COC(=O)CCC[n+]1ccccc1)OC(=O)OC [Example 21d, 1-[3-[[(S)-2-[(methoxycarbonyl)oxy]-3-[(octadecylcarbamoyl)oxy]propoxy]carbonyl]propyl]pyridinium iodide]

Second part, the compound before the results:

Compound | IC50 [nM]
CCCCCCCCCCCCCCCCCCOC(=O)NCC(COC(=O)CCC[n+]1ccccc1)OC(=O)OC (racemic) [Example 26, 1-[3-[[(RS)-2-[(methoxycarbonyl)oxy[-3-[1-(octadecyloxy)-formamido]propoxy]carbonyl]propyl]pyridinium chloride] | 400
CCCCCCCCCCCCCCCCCCNC(=O)OCC(COC(=O)CCC[n+]1ccsc1)NC(=O)OC (racemic) [Example 24, 1-[3-[[(RS)-2-(1-methoxyformamido)-3-(octadecylcarbamoyloxy)propoxy]carbonyl]propyl]thiazolium chloride] | 150
CCCCCCCCCCCCCCCCCCOC[C@H](COC(=O)OCC[n+]1ccsc1)OC(=O)OC [Example 12, 3-[2-[[[(R)-2-[(methoxycarbonyl)oxy]-3-(octadecyloxy)propoxy]carbonyl]oxy]ethyl]thiazolium bromide] | 2000
CCCCCCCCCCCCCCCCCCNC(=O)OCC(COC(=O)CCC[n+]1ccsc1)OC (racemic) [Example 20b, 3-[3-[[(RS)-2-methoxy-3-[(octadecylcarbamoyl)oxy]propoxy]carbonyl]propyl]thiazolium chloride] | 250
CCCCCCCCCCCCCCCCCCNC(=O)OC[C@H](COC(=O)OCC[n+]1ccccc1)OC(=O)OC [Example 11, 1-[2-[[[(R)-2-[(methoxycarbonyl)oxy]-3-(octadecylcarbamoyl)oxy]propoxy]carbonyl]oxy]ethyl]pyridinium bromide] | 600
CCCCCCCCCCCCCCCCCCNC(=O)OC[C@@H](COC(=O)CCC[n+]1ccsc1)OC(=O)OC [Example 21e, 3-[3-[[(R)-2-[(methoxycarbonyl)oxy]-3-[(octadecylcarbamoyl)oxy]propoxy]carbonyl]propyl]thiazolium iodide] | 40
CCCCCCCCCCCCCCCCCCNC(=O)OC[C@H](COC(=O)CCC[n+]1ccsc1)OC(=O)OC [Example 21f, 3-[3-[[(S)-2-[(methoxycarbonyl)oxy]-3-[(octadecylcarbamoyl)oxy]propoxy]carbonyl]propyl]thiazolium iodide] | 60
1-[3-[[[(RS)-2-(1-methoxyformamido)-3-(octadecyloxy)propoxy]carbonyl]oxy]propyl]pyridinium chloride [Example 16] | 1500
CCCCCCCCCCCCCCCCCCNC(=O)OCC(COC(=O)OCC[n+]1ccccc1)OC (racemic) [Example 7b, 1-[2-[[[(RS)-2-methoxy-3-[(octadecylcarbamoyl)oxy]propoxy]carbonyl]oxy]ethyl]pyridinium bromide] | 1600
CCCCCCCCCCCCCCCCCCNC(=O)OCC(COC(=O)NCC[n+]1ccccc1)OC (racemic) [Example 7a, 1-[2-[1-[(RS)-2-methoxy-3-(octadecylcarbamoyloxy)propoxy]formamido]ethyl]pyridinium chloride] | 2000
CCCCCCCCCCCCCCCCCCOC[C@H](COC(=O)OCC[n+]1ccccc1)OC(=O)OC [Example 10, 1-[2-[[(R)-2-[(methoxycarbonyl)oxy]-3-(octadecyloxy)propoxy]carbonyl]oxy]ethyl]pyridinium bromide] | 3000
